Measurements from patent publication US20230131402A1, “SPIRO-LACTAM NMDA RECEPTOR MODULATORS AND USES THEREOF” (Aptinyx Inc., priority 2016, published 2023).

What was measured:
[1] = target: T1, NMDAR2A (Homo sapiens, UniProt Q12879); assay: [3H]MK-801 binding, NMDAR2A expressing HEK cell membranes; type: biochemical; conditions: 50 μM glutamate; for EC50: read-out: NMDAR2A B: log EC50 (converted); for Emax: read-out: NMDAR2A A: % maximal [3H]MK-801 binding relative to 1 mM glycine
T1 construct: expressed in transfected cells; host or cells: HEK cells (membrane extract)
Method: (§1) Assays were conducted as described by Moskal et al., “GLYX-13: a monoclonal antibody-derived peptide that acts as an N-methyl-D-aspartate receptor modulator,” Neuropharmacology, 49, 1077-87, 2005. These studies were designed to determine if the test compounds act to facilitate NMDAR activation in NMDAR2A, NMDAR2B, NMDAR2C or NMDAR2D expressing HEK cell membranes as measured by increases in [^3H]MK-801 binding.
(§2) In the assay, 300 μg of NMDAR expressing HEK cell membrane extract protein was preincubated for 15 minutes at 25° C. in the presence of saturating concentrations of glutamate (50 μM) and varying concentrations of test compound (1×10^−15M−1×10^−7M), or 1 mM glycine. Following the addition of 0.3 μCi of [^3H]MK-801 (22.5 Ci/mmol), reactions were again incubated for 15 minutes at 25° C. (nonequilibrium conditions). Bound and free [^3H]MK-801 were separated via rapid filtration using a Brandel apparatus.
(§3) In analyzing the data, the DPM (disintegrations per minute) of [^3H]MK-801 remaining on the filter were measured for each concentration of test compound or for 1 mM glycine. The DPM values for each concentration of a ligand (N=2) were averaged. The baseline value was determined from the best fit curve of the DPM values modeled using the GraphPad program and the log(agonist) vs. response(three parameters) algorithm was then subtracted from all points in the dataset. The % maximal [^3H]MK-801 binding was then calculated relative to that of 1 mM glycine: all baseline subtracted DPM values were divided by the average value for 1 mM glycine. The EC50 and % maximal activity were then obtained from the best fit curve of the % maximal [^3H]MK-801 binding data modelled using the GraphPad program and the log(agonist) vs. response(three parameters) algorithm.
(§4) The tables below summarize the results for the wild type NMDAR agonists NMDAR2A, NMDAR2B, NMDAR2C, and NMDAR2D, and whether the compound is not an agonist (−), is an agonist (+), or is a strong agonist (++), where column A is based on the % maximal [^3H]MK-801 binding relative to 1 mM glycine (−=0; <100%=+; and >100%=++); and column B is based on log EC50 values (0=−; ≥1×10^−9M (e.g., −8)=+; and <1×10^−9M (e.g., −10)=++).

[2] = target: T2, NMDAR2B (Homo sapiens, UniProt Q13224); assay: [3H]MK-801 binding, NMDAR2B expressing HEK cell membranes; type: biochemical; conditions: 50 μM glutamate; for EC50: read-out: NMDAR2B B: log EC50 (converted); for Emax: read-out: NMDAR2B A: % maximal [3H]MK-801 binding relative to 1 mM glycine
T2 construct: expressed in transfected cells; host or cells: HEK cells (membrane extract)
Method: as §1, §2, §3, §4

[3] = target: T3, NMDAR2D (Homo sapiens, UniProt O15399+Q05586); assay: [3H]MK-801 binding, NMDAR2D expressing HEK cell membranes; type: biochemical; conditions: 50 μM glutamate; for Emax: read-out: NMDAR2D A: % maximal [3H]MK-801 binding relative to 1 mM glycine; for EC50: read-out: NMDAR2D B: log EC50 (converted)
T3 construct: expressed in transfected cells; host or cells: HEK cells (membrane extract)
Method: as §1, §2, §3, §4

[4] = target: T4, NMDAR2C (Homo sapiens, UniProt Q14957); assay: [3H]MK-801 binding, NMDAR2C expressing HEK cell membranes; type: biochemical; conditions: 50 μM glutamate; for EC50: read-out: NMDAR2C B: log EC50 (converted)
T4 construct: expressed in transfected cells; host or cells: HEK cells (membrane extract)
Method: as §1, §2, §3, §4

[5] = target: T5, NMDAR2D (Homo sapiens, UniProt O15399); assay: [3H]MK-801 binding, NMDAR2D expressing HEK cell membranes; type: biochemical; conditions: 50 μM glutamate
T5 construct: expressed in transfected cells; host or cells: HEK cells (membrane extract)
Method: as §1, §2, §3, §4

[6] = IV pharmacokinetics; type: in vivo, Sprague Dawley rats; conditions: Sprague Dawley, rat, in vivo, iv, 2 mg/kg, normal saline (compounds marked * in 1% NMP and 99% normal saline); for C0: read-out: C0; for Vd: read-out: Vss
Description: The table below summarizes the results of the IV pharmacokinetics.

[7] = Oral pharmacokinetics (plasma, brain, CSF); conditions: rat, 10 mg/kg, per os; for bioavailability: % F; for AUC(0-t): AUClast
Method: Plasma, brain, and CSF samples were analyzed at various time points over a 24 hour period.

[8] = test system: rats' response (reduced floating time); assay: Porsolt forced swim test; type: in vivo, Sprague Dawley rats
Method: A non-clinical in vivo pharmacology study (Porsolt assay) was performed to measure antidepressant-like effects. A negative control (0.5% sodium carboxymethyl cellulose in 0.9% sterile saline vehicle) and a positive control (fluoxetine) are shown for comparison against test compound. The study allowed for the evaluation of the effects of each compound on the Porsolt forced swim test as assessed by the rats' response (reduced floating time) during a 5-minute swimming test.
Male 2-3 month old Sprague Dawley rats were used (Harlan, Indianapolis, Ind.). Rats were housed in Lucite cages with aspen wood chip bedding, maintained on a 12:12 light:dark cycle (lights on at 5 AM), and given ad libitum access to Purina lab chow (USA) and tap water throughout the study.
The Porsolt forced swim test adapted for use in rats was performed as described by Burgdorf et al., (The long-lasting antidepressant effects of rapastinel (GLYX-13) are associated with a metaplasticity process in the medial prefrontal cortex and hippocampus. Neuroscience 308:202-211, 2015). Animals were placed in a 46 cm tall×20 cm in diameter clear glass tube filled to 30 cm with tap water (23±1° C.) for 15 min on the first day (habituation) and 5 min on the subsequent test day. Positive control fluoxetine was dosed 3 times (24 h, 5 h and 1 h) prior to testing. Animals were tested 1 h post-dosing with the test compounds or vehicle. Animals received a 15 min habituation session 1 day before the 5 min test. A subset of compounds tested at 1 h post-dosing were retested at 1 wk post-dosing in the same sets of animals. Water was changed after every other animal. Animals were videotaped, and floating time as defined as the minimal amount of effort required to keep the animals head above water was scored offline by a blinded experimenter with high inter-rater reliability (Pearson's r>0.9).
Each compound tested at dose level shown. Significance vs. vehicle group for each experiment is marked. […] A compound marked “No” was not statistically significant from vehicle. Data was averaged for test compound and vehicle groups (N approximately 8 per group) and the percent reduction in floating for group treated with test compound relative to group treated with vehicle is shown.

[9] = Sprague Dawley, plasma, po, normal saline (compounds marked * in 1% NMP and 99% normal saline)
[10] = normal saline (compounds marked * in 1% NMP and 99% normal saline)
[11] = Sprague Dawley, plasma, po, Tmax, normal saline (compounds marked * in 1% NMP and 99% normal saline)
[12] = 1 h post-dose, 0.1 mg/kg; Yes = p<=0.05 from vehicle

T3 sequence (O15399 28-1336, species assumed, other chains not shown): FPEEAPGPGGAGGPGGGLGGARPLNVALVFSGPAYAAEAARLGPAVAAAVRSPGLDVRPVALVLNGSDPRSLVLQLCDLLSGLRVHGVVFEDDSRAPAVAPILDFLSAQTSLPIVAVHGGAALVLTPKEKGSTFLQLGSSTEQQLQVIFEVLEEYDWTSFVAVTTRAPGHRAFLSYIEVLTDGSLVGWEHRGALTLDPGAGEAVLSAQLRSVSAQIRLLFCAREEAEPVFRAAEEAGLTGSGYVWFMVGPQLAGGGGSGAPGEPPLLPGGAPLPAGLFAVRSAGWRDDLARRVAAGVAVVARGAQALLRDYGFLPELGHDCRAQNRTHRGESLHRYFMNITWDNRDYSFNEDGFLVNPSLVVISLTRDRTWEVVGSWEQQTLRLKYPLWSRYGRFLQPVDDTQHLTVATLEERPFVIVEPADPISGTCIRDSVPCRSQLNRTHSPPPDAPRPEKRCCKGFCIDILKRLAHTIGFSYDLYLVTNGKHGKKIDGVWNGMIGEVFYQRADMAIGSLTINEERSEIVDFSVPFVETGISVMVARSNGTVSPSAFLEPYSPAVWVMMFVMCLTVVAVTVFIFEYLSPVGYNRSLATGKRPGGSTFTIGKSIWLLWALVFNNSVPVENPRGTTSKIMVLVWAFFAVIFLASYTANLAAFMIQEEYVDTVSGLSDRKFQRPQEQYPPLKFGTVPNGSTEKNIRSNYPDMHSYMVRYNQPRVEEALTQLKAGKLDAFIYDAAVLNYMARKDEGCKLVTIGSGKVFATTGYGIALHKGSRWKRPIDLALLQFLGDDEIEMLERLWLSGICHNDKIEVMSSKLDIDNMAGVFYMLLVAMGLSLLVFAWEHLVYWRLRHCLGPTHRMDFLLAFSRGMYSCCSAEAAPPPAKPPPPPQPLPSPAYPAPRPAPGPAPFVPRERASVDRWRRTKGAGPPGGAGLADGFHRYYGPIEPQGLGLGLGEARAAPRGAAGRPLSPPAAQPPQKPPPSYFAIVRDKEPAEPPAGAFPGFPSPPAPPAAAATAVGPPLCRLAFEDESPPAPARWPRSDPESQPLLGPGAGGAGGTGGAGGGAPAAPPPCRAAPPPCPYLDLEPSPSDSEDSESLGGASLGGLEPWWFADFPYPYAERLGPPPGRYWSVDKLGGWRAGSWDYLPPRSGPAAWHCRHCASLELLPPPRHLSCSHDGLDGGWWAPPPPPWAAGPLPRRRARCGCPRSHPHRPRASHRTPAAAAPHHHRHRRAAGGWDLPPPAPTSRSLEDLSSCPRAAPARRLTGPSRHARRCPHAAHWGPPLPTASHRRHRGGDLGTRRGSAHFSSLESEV
T1 sequence (Q12879 23-1464, species assumed, other chains not shown): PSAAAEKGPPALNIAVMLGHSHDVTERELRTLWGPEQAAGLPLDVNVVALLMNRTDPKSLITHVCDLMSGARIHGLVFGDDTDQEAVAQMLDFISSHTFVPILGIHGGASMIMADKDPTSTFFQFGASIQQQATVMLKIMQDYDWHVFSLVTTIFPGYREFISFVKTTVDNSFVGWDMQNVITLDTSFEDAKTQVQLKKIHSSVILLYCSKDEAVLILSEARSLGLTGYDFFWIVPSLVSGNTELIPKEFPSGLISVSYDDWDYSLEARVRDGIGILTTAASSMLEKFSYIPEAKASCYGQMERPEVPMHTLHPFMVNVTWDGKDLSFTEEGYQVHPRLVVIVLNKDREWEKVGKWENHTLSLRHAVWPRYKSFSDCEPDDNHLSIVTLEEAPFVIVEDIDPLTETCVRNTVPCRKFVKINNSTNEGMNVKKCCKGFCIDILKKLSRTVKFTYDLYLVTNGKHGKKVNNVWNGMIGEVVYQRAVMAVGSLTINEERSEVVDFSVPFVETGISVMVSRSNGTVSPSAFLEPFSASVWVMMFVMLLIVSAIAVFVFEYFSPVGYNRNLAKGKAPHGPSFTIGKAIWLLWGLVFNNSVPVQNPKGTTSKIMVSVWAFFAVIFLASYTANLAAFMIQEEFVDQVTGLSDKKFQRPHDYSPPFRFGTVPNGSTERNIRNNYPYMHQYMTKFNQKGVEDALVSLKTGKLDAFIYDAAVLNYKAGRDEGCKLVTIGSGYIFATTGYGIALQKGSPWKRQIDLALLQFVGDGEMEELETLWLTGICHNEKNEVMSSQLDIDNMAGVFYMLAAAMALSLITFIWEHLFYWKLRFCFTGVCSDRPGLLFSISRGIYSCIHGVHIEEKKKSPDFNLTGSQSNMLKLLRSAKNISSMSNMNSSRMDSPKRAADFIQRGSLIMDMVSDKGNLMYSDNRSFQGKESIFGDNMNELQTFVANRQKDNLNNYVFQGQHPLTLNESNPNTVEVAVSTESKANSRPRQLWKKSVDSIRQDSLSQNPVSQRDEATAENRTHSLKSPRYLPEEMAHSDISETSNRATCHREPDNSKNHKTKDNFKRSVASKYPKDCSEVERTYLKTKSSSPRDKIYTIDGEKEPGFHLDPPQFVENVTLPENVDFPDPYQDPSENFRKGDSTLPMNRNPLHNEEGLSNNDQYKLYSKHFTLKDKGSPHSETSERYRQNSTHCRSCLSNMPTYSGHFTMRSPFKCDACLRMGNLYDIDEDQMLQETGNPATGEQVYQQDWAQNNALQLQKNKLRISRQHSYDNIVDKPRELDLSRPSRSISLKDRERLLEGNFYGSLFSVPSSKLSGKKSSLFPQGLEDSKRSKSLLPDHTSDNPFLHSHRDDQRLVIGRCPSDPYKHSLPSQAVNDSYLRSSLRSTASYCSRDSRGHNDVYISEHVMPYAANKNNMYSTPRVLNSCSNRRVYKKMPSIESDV
T2 sequence (Q13224 27-1484, species assumed, other chains not shown): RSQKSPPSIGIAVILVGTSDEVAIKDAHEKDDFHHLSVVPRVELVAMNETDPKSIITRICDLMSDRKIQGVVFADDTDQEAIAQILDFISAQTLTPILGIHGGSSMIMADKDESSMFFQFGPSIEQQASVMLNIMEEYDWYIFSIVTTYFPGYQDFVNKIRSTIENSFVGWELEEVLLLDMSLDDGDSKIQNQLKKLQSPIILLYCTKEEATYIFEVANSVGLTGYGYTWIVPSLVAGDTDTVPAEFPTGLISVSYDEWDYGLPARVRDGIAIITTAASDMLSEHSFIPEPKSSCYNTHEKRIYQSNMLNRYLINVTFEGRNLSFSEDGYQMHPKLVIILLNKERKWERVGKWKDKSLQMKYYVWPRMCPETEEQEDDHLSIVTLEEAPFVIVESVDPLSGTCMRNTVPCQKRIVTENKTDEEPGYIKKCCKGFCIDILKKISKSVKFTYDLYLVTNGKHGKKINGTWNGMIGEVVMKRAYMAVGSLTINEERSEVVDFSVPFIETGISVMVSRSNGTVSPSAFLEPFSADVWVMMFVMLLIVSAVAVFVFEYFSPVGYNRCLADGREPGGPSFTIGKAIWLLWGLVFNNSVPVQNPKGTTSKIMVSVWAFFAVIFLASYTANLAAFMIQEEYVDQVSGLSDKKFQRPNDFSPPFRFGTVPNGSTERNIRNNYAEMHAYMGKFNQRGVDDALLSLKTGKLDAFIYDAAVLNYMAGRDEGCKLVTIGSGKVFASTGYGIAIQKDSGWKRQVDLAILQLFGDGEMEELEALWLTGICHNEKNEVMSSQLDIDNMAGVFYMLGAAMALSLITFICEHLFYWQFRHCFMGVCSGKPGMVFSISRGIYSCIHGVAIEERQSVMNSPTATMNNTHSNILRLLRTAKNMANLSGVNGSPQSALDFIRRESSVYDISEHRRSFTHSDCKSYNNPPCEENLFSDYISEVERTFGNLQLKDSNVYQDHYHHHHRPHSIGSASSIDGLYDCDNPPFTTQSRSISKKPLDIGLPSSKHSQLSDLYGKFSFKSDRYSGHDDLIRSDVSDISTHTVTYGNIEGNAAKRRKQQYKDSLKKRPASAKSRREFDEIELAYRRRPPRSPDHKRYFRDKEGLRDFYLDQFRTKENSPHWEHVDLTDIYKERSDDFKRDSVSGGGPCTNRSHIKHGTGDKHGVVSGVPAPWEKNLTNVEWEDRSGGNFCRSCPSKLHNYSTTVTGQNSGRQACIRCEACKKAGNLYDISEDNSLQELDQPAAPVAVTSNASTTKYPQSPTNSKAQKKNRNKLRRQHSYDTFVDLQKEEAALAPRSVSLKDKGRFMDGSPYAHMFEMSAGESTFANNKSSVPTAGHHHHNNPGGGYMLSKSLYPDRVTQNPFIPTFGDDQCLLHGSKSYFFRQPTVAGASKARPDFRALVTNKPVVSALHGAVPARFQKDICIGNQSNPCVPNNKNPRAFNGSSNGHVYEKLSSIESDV
T5 sequence (O15399 28-1336, species assumed, other chains not shown): as the sequence (O15399 28-1336, species assumed, other chains not shown) above

SMILES | NMDAR2A A: % maximal [3H]MK-801 binding relative to 1 mM glycine [1] | EC50 [1] | NMDAR2B A: % maximal [3H]MK-801 binding relative to 1 mM glycine [2] | EC50 [2] | Emax [3] | Emax [1] | NMDAR2C A: % maximal [3H]MK-801 binding relative to 1 mM glycine [4] | EC50 [4] | EC50 [3] | Emax [2] | AUC(0-t) [6] | clearance [6] | half-life [6] | C0 [6] | Vd [6] | Cmax [7, 9] | bioavailability ([7]; Sprague Dawley, plasma, po) | AUC(0-t) [7, 9] | Tmax [7, 11] | CSF Cmax [7] | other results
O=C1NCC12CN(Cc1ccccc1)CCN2Cc1ccccc1 (single isomer, unassigned) [EA-1, 5,8-Dibenzyl-2,5,8-Triazaspiro[3.5]Nonan-1-One] | + (<100%=+) | < 1 nM | + (<100%=+) | < 1 nM | 0% | – | – | – | – | – | – | – | – | – | – | – | – | – | – | – | –
CC(C)(C)OC(=O)N1CCNC2(CNC2=O)C1 (single isomer, unassigned) [EB-1, Tort-Butyl 1-Oxo-2,5,8-Triazaspiro[3.5]Nonane-8-Carboxylate] | – | < 1 nM | − (−=0) | – | < 100% | < 100% | + (<100%=+) | > 1 nM | < 1 nM | – | – | – | – | – | – | – | – | – | – | – | –
CC(C)(C)OC(=O)N1CCNC2(CNC2=O)C1 (single isomer, unassigned) [EB-2, Tort-Butyl 1-Oxo-2,5,8-Triazaspiro[3.5]Nonane-8-Carboxylate] | + (<100%=+) | < 1 nM | + (<100%=+) | > 1 nM | – | – | + (<100%=+) | < 1 nM | – | – | – | – | – | – | – | – | – | – | – | – | NMDAR2D A: % maximal [3H]MK-801 binding relative to 1 mM glycine [5]: + (<100%=+); EC50 ([5]; read-out: NMDAR2D B: log EC50 (converted)): < 1 nM
C[C@@H](O)[C@H](N)C(=O)N1CCN(C(=O)OC(C)(C)C)CC12CNC2=O (single isomer, unassigned) [EC-1, Tert-Butyl 5-(L-Threonyl)-1-Oxo-2,5,8-Triazaspiro[3.5]Nonane Carboxylate] | – | < 1 nM | – | – | < 100% | < 100% | – | – | < 1 nM | 0% | – | – | – | – | – | – | – | – | – | – | –
O=C1NCC12CNCCN2Cc1ccccc1 (single isomer, unassigned) [ED-1, 5-Benzyl-2,5,8-Triazaspiro[3.5]Nonan-1-One] | – | – | − (−=0) | – | < 100% | 0% | – | – | < 1 nM | – | 1020 ng·h/mL | 32.1 mL/min/kg | 47.4 min | 1180 ng/mL | 1.88 L/kg | 2800 ng/mL | – | – | – | – | % F [7]: 138%; AUClast [7, 10]: 7053.49 ng·h/mL; Tmax [7, 10]: 40.2 min
CC(C)(C)OC(=O)N1CCN(C(=O)OC(C)(C)C)C2(CNC2=O)C1 (single isomer, unassigned) [EE-1, Di-Tert-Butyl 1-Oxo-2,5,8-Triazaspiro[3.5]Nonane-5,8-Dicarboxylate] | – | – | – | < 1 nM | 0% | 0% | − (−=0) | – | – | < 100% | – | – | – | – | – | – | – | – | – | – | –

Continued, in another order:

NMDAR2A A: % maximal [3H]MK-801 binding relative to 1 mM glycine [1] | EC50 [1] | NMDAR2B A: % maximal [3H]MK-801 binding relative to 1 mM glycine [2] | EC50 [2] | Emax [3] | Emax [1] | NMDAR2C A: % maximal [3H]MK-801 binding relative to 1 mM glycine [4] | EC50 [4] | EC50 [3] | Emax [2] | AUC(0-t) [6] | clearance [6] | half-life [6] | C0 [6] | Vd [6] | Cmax [7, 9] | bioavailability ([7]; Sprague Dawley, plasma, po) | AUC(0-t) [7, 9] | Tmax [7, 11] | CSF Cmax [7] | SMILES | other results
+ (<100%=+) | < 1 nM | − (−=0) | – | < 100% | – | – | – | < 1 nM | – | 2260 ng·h/mL | 15 mL/min/kg | 48 min | 6460 ng/mL | 0.4 L/kg | 1620 ng/mL | 51% | 5740 ng·h/mL | 100 min | 7 ng/mL | C[C@@H](O)[C@H](N)C(=O)N1CCNC2(CNC2=O)C1 (single isomer, unassigned) [EK-1, 8-(L-Threonyl)-2,5,8-Triazaspiro[3.5]Nonan-1-One] | Brain Cmax [7]: 0 ng/mL
– | – | – | < 1 nM | 0% | – | + (<100%=+) | < 1 nM | – | – | – | – | – | – | – | – | – | – | – | – | C[C@@H](O)[C@H](N)C(=O)N1CCN(Cc2ccccc2)C2(CNC2=O)C1 (single isomer, unassigned) [EL-2, 8-(L-Threonyl)-5-Benzyl-2,5,8-Triazaspiro[3.5]Nonan-1-One] | –
– | – | – | < 1 nM | < 100% | 0% | − (−=0) | – | < 1 nM | < 100% | 593 ng·h/mL | 57.2 mL/min/kg | 31.2 min | 1670 ng/mL | 1.44 L/kg | 1540 ng/mL | 69% | 2050 ng·h/mL | 30 min | 232 ng/mL | CN1CCN(C(=O)OC(C)(C)C)CC12CN(CC(N)=O)C2=O (centres unmarked) [ER-117] | % reduction in float time ([8]; 1 h post-dose, 0.1 mg/kg, relative to vehicle group): 55.0%; Significance vs. vehicle [8, 12]: Yes; Brain Cmax [7]: 121 ng/mL
+ (<100%=+) | < 1 nM | + (<100%=+) | < 1 nM | – | – | – | – | – | – | 4770 ng·h/mL | 6.84 mL/min/kg | 820 min | 13700 ng/mL | 0.73 L/kg | 2690 ng/mL | 44% | 9820 ng·h/mL | 60 min | 143 ng/mL | C[C@@H](O)[C@H](N)C(=O)N1CCNC2(CCNC2=O)C1 (some centres unmarked) [ES-336] | % reduction in float time ([8]; 1 wk post-dose, 0.1 mg/kg, relative to vehicle group; 0.1 mg/kg): 86.5%; Significance vs. vehicle ([8]; 1 wk post-dose, 0.1 mg/kg; Yes = p<=0.05 from vehicle): Yes; % reduction in float time ([8]; 1 h post-dose, 0.1 mg/kg, relative to vehicle group; 0.1 mg/kg): 81.6%; Significance vs. vehicle [8, 12]: Yes; Brain Cmax [7]: 32 ng/mL
